Laboratory results as given in the NIST ThermoML archive (doi:10.1021/je900732r).

Assay: mn = molality of the nth substance listed, in mol/kg
Details: 101 kPa, Liquid; for speed of sound: Pulse-echo method

[Co+2].[O-][Cl+3]([O-])([O-])[O-].[O-][Cl+3]([O-])([O-])[O-] [cobalt(II) perchlorate] + C[S+](C)[O-]
mass density [kg/m3]
Details	293.15 K	298.15 K	303.15 K	313.15 K	323.15 K	333.15 K
m1 = 0.01481	1103.37	1098.35	1093.34	1083.31	1073.29	1063.26
m1 = 0.0215	1104.79	1099.78	1094.77	1084.75	1074.74	1064.73
m1 = 0.03236	1107.1	1102.1	1097.1	1087.09	1077.1	1067.1
m1 = 0.04309	1109.4	1104.4	1099.41	1089.42	1079.44	1069.46
m1 = 0.05528	1112.02	1107.03	1102.04	1092.06	1082.1	1072.14
m1 = 0.06505	1114.13	1109.14	1104.15	1094.2	1084.25	1074.3
m1 = 0.08726	1118.94	1113.97	1109	1099.07	1089.15	1079.22
m1 = 0.1069	1123.24	1118.27	1113.31	1103.39	1093.51	1083.61
m1 = 0.1285	1127.98	1123.03	1118.08	1108.19	1098.33	1088.47
m1 = 0.148	1132.32	1127.38	1122.44	1112.57	1102.73	1092.9
m1 = 0.1695	1137.12	1132.18	1127.26	1117.42	1107.6	1097.8
m1 = 0.1911	1141.97	1137.05	1132.14	1122.33	1112.53	1102.76
m1 = 0.2111	1146.48	1141.57	1136.67	1126.88	1117.12	1107.38

[Cu+2].[O-][Cl+3]([O-])([O-])[O-].[O-][Cl+3]([O-])([O-])[O-] [copper perchlorate] + C[S+](C)[O-]
mass density [kg/m3]
Details	293.15 K	298.15 K	303.15 K	313.15 K	323.15 K	333.15 K
m1 = 0.01424	1103.32	1098.31	1093.29	1083.26	1073.23	1063.21
m1 = 0.01956	1104.48	1099.47	1094.46	1084.44	1074.42	1064.4
m1 = 0.02779	1106.27	1101.26	1096.26	1086.25	1076.24	1066.24
m1 = 0.03497	1107.84	1102.83	1097.83	1087.83	1077.83	1067.84
m1 = 0.0419	1109.35	1104.35	1099.36	1089.37	1079.36	1069.38
m1 = 0.05636	1112.53	1107.54	1102.54	1092.57	1082.6	1072.64
m1 = 0.07067	1115.69	1110.7	1105.71	1095.76	1085.8	1075.85
m1 = 0.08366	1118.57	1113.58	1108.61	1098.65	1088.72	1078.79
m1 = 0.09783	1121.71	1116.73	1111.75	1101.83	1091.91	1082
m1 = 0.1114	1124.76	1119.78	1114.82	1104.9	1095	1085.1
m1 = 0.1251	1127.83	1122.85	1117.89	1108	1098.11	1088.23
m1 = 0.1384	1130.82	1125.85	1120.9	1111.02	1101.14	1091.28

O=S(=O)([O-])C(F)(F)F.O=S(=O)([O-])C(F)(F)F.[Cu+2] [copper(II) trifluoromethanesulfonate] + CO
Details	mass density, 283.15 K [kg/m3]	mass density, 288.15 K [kg/m3]	mass density, 293.15 K [kg/m3]	mass density, 298.15 K [kg/m3]	mass density, 303.15 K [kg/m3]	mass density, 308.15 K [kg/m3]	mass density, 313.15 K [kg/m3]	speed of sound, 298.15 K [m/s]
m1 = 0.1213	829.484	824.791	820.094	815.38	810.649	805.885	801.107	1106
m1 = 0.1418	834.535	829.841	825.141	820.428	815.692	810.942	806.159	1106.6
m1 = 0.1772	843.312	838.612	833.908	829.19	824.45	819.682	814.901	1107.4
m1 = 0.2047	850.214	845.512	840.803	836.081	831.338	826.565	821.777	1108.2
m1 = 0.231	856.972	852.265	847.554	842.828	838.081	833.302	828.513	1109.1
m1 = 0.2571	863.707	858.996	854.279	849.545	844.805	840.033	835.231	1109.7
m1 = 0.2847	871.006	866.292	861.57	856.839	852.088	847.311	842.504	1110.5

C[S+](C)[O-] [dimethyl sulfoxide] + [Co+2].[O-][Cl+3]([O-])([O-])[O-].[O-][Cl+3]([O-])([O-])[O-]
m2 = 0
Details	mass density [kg/m3]
293.15 K	1100.22
298.15 K	1095.19
303.15 K	1090.18
313.15 K	1080.12
323.15 K	1070.08
333.15 K	1060.03

C[S+](C)[O-] [dimethyl sulfoxide] + [Cu+2].[O-][Cl+3]([O-])([O-])[O-].[O-][Cl+3]([O-])([O-])[O-]
m2 = 0
Details	mass density [kg/m3]
293.15 K	1100.23
298.15 K	1095.2
303.15 K	1090.18
313.15 K	1080.12
323.15 K	1070.08
333.15 K	1060.04

C[S+](C)[O-] [dimethyl sulfoxide] + [Mn+2].[O-][Cl+3]([O-])([O-])[O-].[O-][Cl+3]([O-])([O-])[O-]
m2 = 0
Details	mass density [kg/m3]
293.15 K	1100.22
298.15 K	1095.19
303.15 K	1090.17
313.15 K	1080.12
323.15 K	1070.08
333.15 K	1060.04

C[S+](C)[O-] [dimethyl sulfoxide] + [Ni+2].[O-][Cl+3]([O-])([O-])[O-].[O-][Cl+3]([O-])([O-])[O-]
m2 = 0
Details	mass density [kg/m3]
293.15 K	1100.22
298.15 K	1095.19
303.15 K	1090.17
313.15 K	1080.12
323.15 K	1070.08
333.15 K	1060.04

C[S+](C)[O-] [dimethyl sulfoxide] + [O-][Cl+3]([O-])([O-])[O-].[O-][Cl+3]([O-])([O-])[O-].[Zn+2]
m2 = 0
Details	mass density [kg/m3]
293.15 K	1100.23
298.15 K	1095.2
303.15 K	1090.18
313.15 K	1080.12
323.15 K	1070.08
333.15 K	1060.04

[Mn+2].[O-][Cl+3]([O-])([O-])[O-].[O-][Cl+3]([O-])([O-])[O-] [manganese (II) perchlorate] + C[S+](C)[O-]
mass density [kg/m3]
Details	293.15 K	298.15 K	303.15 K	313.15 K	323.15 K	333.15 K
m1 = 0.01626	1103.52	1098.5	1093.49	1083.46	1073.44	1063.42
m1 = 0.0211	1104.5	1099.48	1094.47	1084.45	1074.44	1064.43
m1 = 0.02843	1105.99	1100.98	1095.97	1085.96	1075.96	1065.96
m1 = 0.037	1107.74	1102.73	1097.73	1087.73	1077.74	1067.75
m1 = 0.04758	1109.9	1104.9	1099.91	1089.92	1079.94	1069.97
m1 = 0.05763	1111.96	1106.97	1101.98	1092.01	1082.05	1072.09
m1 = 0.07358	1115.24	1110.26	1105.28	1095.33	1085.39	1075.45
m1 = 0.09456	1119.59	1114.62	1109.65	1099.73	1089.82	1079.91
m1 = 0.1139	1123.62	1118.65	1113.7	1103.8	1093.92	1084.04
m1 = 0.1337	1127.77	1122.82	1117.87	1108	1098.14	1088.29
m1 = 0.1569	1132.59	1127.65	1122.73	1112.88	1103.06	1093.24
m1 = 0.1754	1136.6	1131.67	1126.75	1116.94	1107.13	1097.34

CO [methanol] + O=S(=O)([O-])C(F)(F)F.O=S(=O)([O-])C(F)(F)F.[Cu+2]
m2 = 0
Details	mass density [kg/m3]
283.15 K	800.548
288.15 K	795.857
293.15 K	791.162
298.15 K	786.452
303.15 K	781.722
308.15 K	776.978
313.15 K	772.2

CO [methanol] + [Co+2].[O-][Cl+3]([O-])([O-])[O-].[O-][Cl+3]([O-])([O-])[O-]
m2 = 0
Details	mass density [kg/m3]
283.15 K	800.55
288.15 K	795.872
293.15 K	791.172
298.15 K	786.464
303.15 K	781.742
308.15 K	776.992
313.15 K	772.214

CO [methanol] + [Ni+2].[O-][Cl+3]([O-])([O-])[O-].[O-][Cl+3]([O-])([O-])[O-]
m2 = 0
Details	mass density [kg/m3]
283.15 K	800.541
288.15 K	795.866
293.15 K	791.169
298.15 K	786.46
303.15 K	781.733
308.15 K	776.979
313.15 K	772.189
